Data as given in US20260285850A1, “SUBSTITUTED OXAZOLIDINONES AND IMIDAZOLINONES AS HERBICIDES” (FMC CORPORATION, priority 2023, published 2026).

What was measured:
Format in all cases: in vivo
[1] = tested on: green foxtail (Setaria viridis); test: Test A preemergence soil spray, visual injury rating 0-100; details: 10 days, 0 = no effect, 100 = complete control
Outline: (§1)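 Grow plants in loam soil blended with sand. Apply formulated compound (non-phytotoxic solvent, surfactant) as a directed soil spray before emergence, or to plants at the one- to two-leaf stage after emergence. Hold in greenhouse 10 days, then rate injury visually versus untreated controls on a 0-100 scale.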

[2] = tested on: blackgrass (Alopecurus myosuroides); test: as above; details: 10 days, 0 = no effect, 100 = complete control
Outline: as §1

[3] = tested on: ryegrass, Italian (italian ryegrass, Lolium multiflorum); test: as above; details: 10 days, 0 = no effect, 100 = complete control
Outline: as §1

[4] = tested on: wheat (Triticum aestivum); test: as above; details: 10 days, 0 = no effect, 100 = complete control
Outline: as §1

[5] = tested on: ragweed (common ragweed, Ambrosia artemisiifolia); test: as above; details: 10 days, 0 = no effect, 100 = complete control
Outline: as §1

[6] = tested on: oat, wild (wild oat, Avena fatua); test: as above; details: 10 days, 0 = no effect, 100 = complete control
Outline: as §1

[7] = tested on: barnyardgrass (Echinochloa crus-galli); test: as above; details: 10 days, 0 = no effect, 100 = complete control
Outline: as §1

[8] = tested on: corn (Zea mays); test: as above; details: 10 days, 0 = no effect, 100 = complete control
Outline: as §1

[9] = tested on: soybean (Glycine max); test: as above; details: 10 days, 0 = no effect, 100 = complete control
Outline: as §1

[10] = tested on: palmer (palmer amaranth, palmer pigweed, Amaranthus palmeri); test: as above; details: 10 days, 0 = no effect, 100 = complete control
Outline: as §1

[11] = tested on: kochia (Bassia scoparia); test: as above; details: 10 days, 0 = no effect, 100 = complete control
Outline: as §1

[12] = tested on: galium (catchweed bedstraw, Galium aparine); test: Test A postemergence application, visual injury rating 0-100; details: Postemergence, 10 days, 0 is no effect, 100 is complete control
Outline: as §1

[13] = tested on: green foxtail (Setaria viridis); test: as above; details: Postemergence, 10 days, 0 is no effect, 100 is complete control
Outline: as §1

[14] = tested on: blackgrass (Alopecurus myosuroides); test: as above; details: Postemergence, 10 days, 0 is no effect, 100 is complete control
Outline: as §1

[15] = tested on: ryegrass, Italian (italian ryegrass, Lolium multiflorum); test: as above; details: Postemergence, 10 days, 0 is no effect, 100 is complete control
Outline: as §1

[16] = tested on: wheat (Triticum aestivum); test: as above; details: Postemergence, 10 days, 0 is no effect, 100 is complete control
Outline: as §1

[17] = tested on: ragweed (common ragweed, Ambrosia artemisiifolia); test: as above; details: Postemergence, 10 days, 0 is no effect, 100 is complete control
Outline: as §1

[18] = tested on: oat, wild (wild oat, Avena fatua); test: as above; details: Postemergence, 10 days, 0 is no effect, 100 is complete control
Outline: as §1

[19] = tested on: barnyardgrass (Echinochloa crus-galli); test: as above; details: Postemergence, 10 days, 0 is no effect, 100 is complete control
Outline: as §1

[20] = tested on: corn (Zea mays); test: as above; details: Postemergence, 10 days, 0 is no effect, 100 is complete control
Outline: as §1

[21] = tested on: soybean (Glycine max); test: as above; details: Postemergence, 10 days, 0 is no effect, 100 is complete control
Outline: as §1

[22] = tested on: horseweed (Erigeron canadensis); test: as above; details: Postemergence, 10 days, 0 is no effect, 100 is complete control
Outline: as §1

[23] = tested on: palmer (palmer amaranth, palmer pigweed, Amaranthus palmeri); test: as above; details: Postemergence, 10 days, 0 is no effect, 100 is complete control
Outline: as §1

[24] = tested on: kochia (Bassia scoparia); test: as above; details: Postemergence, 10 days, 0 is no effect, 100 is complete control
Outline: as §1

[25] = tested on: rice (Oryza sativa); test: Test B flooded paddy test, visual plant response rating 0-100; details: 250 g ai/ha, Flood, applied to paddy water, evaluated after 13 days
Outline: (§2)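 In this flooded assay, 2-leaf seedlings received compound through the water layer, kept at 3 cm over the soil. Plants were held 13 days in a greenhouse and then visually compared with control pots.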

[26] = tested on: barnyardgrass (Echinochloa crusgalli); test: as above; details: 250 g ai/ha, Flood, applied to paddy water, evaluated after 13 days
Outline: as §2

[27] = tested on: sedge, umbrella (small-flower umbrella sedge, Cyperus difformis); test: as above; details: 250 g ai/ha, Flood, applied to paddy water, evaluated after 13 days
Outline: as §2

[28] = tested on: ducksalad (Heteranthera limosa); test: as above; details: 250 g ai/ha, Flood, applied to paddy water, evaluated after 13 days
Outline: as §2

COC(=O)C1C=CC(NC(=O)C2(C)CN(c3cc(Cl)cc(Cl)c3)C(=O)O2)C1 (stereo not shown) [Compound 42]
15: Plant response rating, Rice (0 to 100 scale, 0 is no effect and 100 is complete control) [25]
95: Plant response rating, Barnyardgrass (0 to 100 scale, 0 is no effect and 100 is complete control) [26] | Plant response rating, Sedge, Umbrella (0 to 100 scale, 0 is no effect and 100 is complete control) [27]
90: Blackgrass plant response rating (0 to 100 scale) ([2]; 125 g ai/ha) | Ryegrass, Italian plant response rating (0 to 100 scale) ([3]; 125 g ai/ha) | Wheat plant response rating (0 to 100 scale) ([4]; 125 g ai/ha) | Wheat plant response rating (0 to 100 scale) ([4]; 500 g ai/ha) | Oat, Wild plant response rating (0 to 100 scale) ([6]; 125 g ai/ha) | Oat, Wild plant response rating (0 to 100 scale) ([6]; 500 g ai/ha) | Corn plant response rating (0 to 100 scale) ([8]; 125 g ai/ha) | Corn plant response rating (0 to 100 scale) ([8]; 500 g ai/ha) | Kochia plant response rating (0 to 100 scale) ([11]; 125 g ai/ha) | Kochia plant response rating (0 to 100 scale) ([11]; 500 g ai/ha) | Foxtail, Green plant response rating (0 to 100 scale) ([13]; 125 g ai/ha) | Foxtail, Green plant response rating (0 to 100 scale) ([13]; 500 g ai/ha) | Ryegrass, Italian plant response rating (0 to 100 scale) ([15]; 125 g ai/ha) | Ryegrass, Italian plant response rating (0 to 100 scale) ([15]; 500 g ai/ha) | Wheat plant response rating (0 to 100 scale) ([16]; 125 g ai/ha) | Wheat plant response rating (0 to 100 scale) ([16]; 500 g ai/ha) | Oat, Wild plant response rating (0 to 100 scale) ([18]; 125 g ai/ha) | Oat, Wild plant response rating (0 to 100 scale) ([18]; 500 g ai/ha) | Soybean plant response rating (0 to 100 scale) ([21]; 125 g ai/ha) | Horseweed plant response rating (0 to 100 scale) ([22]; 500 g ai/ha) | Plant response rating, Ducksalad (0 to 100 scale, 0 is no effect and 100 is complete control) [28]
40: Soybean plant response rating (0 to 100 scale) ([9]; 125 g ai/ha)
70: Soybean plant response rating (0 to 100 scale) ([9]; 500 g ai/ha) | Galium plant response rating (0 to 100 scale) ([12]; 125 g ai/ha) | Ragweed plant response rating (0 to 100 scale) ([17]; 125 g ai/ha)
100: Foxtail, Green plant response rating (0 to 100 scale) ([1]; 125 g ai/ha) | Foxtail, Green plant response rating (0 to 100 scale) ([1]; 500 g ai/ha) | Blackgrass plant response rating (0 to 100 scale) ([2]; 500 g ai/ha) | Ryegrass, Italian plant response rating (0 to 100 scale) ([3]; 500 g ai/ha) | Barnyardgrass plant response rating (0 to 100 scale) ([7]; 125 g ai/ha) | Barnyardgrass plant response rating (0 to 100 scale) ([7]; 500 g ai/ha) | Amaranth, Palmer plant response rating (0 to 100 scale) ([10]; 125 g ai/ha) | Amaranth, Palmer plant response rating (0 to 100 scale) ([10]; 500 g ai/ha) | Blackgrass plant response rating (0 to 100 scale) ([14]; 125 g ai/ha) | Blackgrass plant response rating (0 to 100 scale) ([14]; 500 g ai/ha) | Barnyardgrass plant response rating (0 to 100 scale) ([19]; 125 g ai/ha) | Barnyardgrass plant response rating (0 to 100 scale) ([19]; 500 g ai/ha) | Corn plant response rating (0 to 100 scale) ([20]; 125 g ai/ha) | Corn plant response rating (0 to 100 scale) ([20]; 500 g ai/ha) | Amaranth, Palmer / Pigweed, Palmer plant response rating (0 to 100 scale) ([23]; 125 g ai/ha) | Amaranth, Palmer / Pigweed, Palmer plant response rating (0 to 100 scale) ([23]; 500 g ai/ha)
80: Ragweed plant response rating (0 to 100 scale) ([5]; 500 g ai/ha) | Galium plant response rating (0 to 100 scale) ([12]; 500 g ai/ha) | Ragweed plant response rating (0 to 100 scale) ([17]; 500 g ai/ha) | Soybean plant response rating (0 to 100 scale) ([21]; 500 g ai/ha) | Horseweed plant response rating (0 to 100 scale) ([22]; 125 g ai/ha) | Kochia plant response rating (0 to 100 scale) ([24]; 125 g ai/ha) | Kochia plant response rating (0 to 100 scale) ([24]; 500 g ai/ha)
20: Ragweed plant response rating (0 to 100 scale) ([5]; 125 g ai/ha)
